Publication PMC5666514 (Chemical Science, 2015)
*1 amine or outer side, *2 acyl side, *3 side chain or, on linkers, in order; H or OH if unused. Where a SMILES comes first, the peptide text is derived from it. Bridges are numbered along the chain shown (N, C = ends). Roman numbers before positions name the chains, in order. [ ]: non-standard residue; d: D form. The star is where a group is joined. Quinoxaline2carbonyl = O=C(c1cnc2ccccc2n1)*; Ethylenediamine = C(CN[*:2])N[*:1]; NMeV = CN[C@H](C(=O)O)C(C)C; NMeC = CN[C@@H](CS)C(=O)O; Abu = CC[C@H](N)C(=O)O

Tests used:
[1] = test system: red blood cells; settings: human RBCs, PBS, 1 h at 37 °C, concentrations up to 100 μM, absorbance 560 nm, n=3
[2] = test system: SK-BR-3 breast adenocarcinoma cells; assay: cells; type: cell-based, human; settings: MTT assay, 24 h exposure, run in triplicate or greater; read-out: IC50, Breast SK-BR-3
Protocol: (§1) The twelve synthesized compounds were evaluated in vitro using the following four human cancer cell lines: cervical adenocarcinoma (HeLa), lung carcinoma (A-549), breast adenocarcinoma (SK-BR-3) and colon adenocarcinoma (HT-29). Cells were treated for 24 h with various concentrations of the compounds, and their cytotoxic activity was then assessed using the [3-(4,5-dimethylthiazol-2-yl)-2,5-diphenyltetrazolium] bromide (MTT) assay.[29] Analysis of the dose-response data obtained yielded IC50 (50% inhibitory concentration) values, which are detailed in Table 1.
(§2) Normally growing cells were plated at 5 × 10^3 cells per well into 96-well plates and incubated for 24 h at 37 °C to allow attachment to the surface. Samples were then added dissolved in a DMSO–PBS vehicle (less than 1% in culture medium) at a range of concentrations. Drugs were run in triplicate or greater and control wells contained appropriate percentages of vehicle. After 24 h of exposure, the antitumor effect was measured using a solution of MTT, which is bioreduced by viable cells into formazan. The formed crystals were solubilized using DMSO and the amount of formazan was measured by reading the absorbance at 570 nm. The absorbance of wells containing only the MTT reagent (the plate blank) was subtracted from all wells.
(§3) The IC50 values were determined by dose response curve analysis and statistical analysis using GraphPad Prism software version 5.0a. […]
(§4) mM L-glutamine and antibiotics.
(§5) in a humidified atmosphere containing 5% CO2. For sub-culturing, cells were detached from
(§6) 5 mL of fresh medium preheated at 37 °C. Cellular density was determined in a Neubauer

[3] = test system: A-549 lung carcinoma cells; assay: cells; type: cell-based, human; settings: MTT assay, 24 h exposure, run in triplicate or greater; read-out: IC50, Lung A-549
Protocol: as §1, §2, §3, §4, §5, §6

[4] = test system: HT-29 colon adenocarcinoma cells; assay: cells; type: cell-based, human; settings: MTT assay, 24 h exposure, run in triplicate or greater; read-out: IC50, Colon HT-29
Protocol: as §1, §2, §3, §4, §5, §6

[5] = test system: HeLa cervical adenocarcinoma cells; assay: cells; type: cell-based, human; settings: MTT assay, 24 h exposure, run in triplicate or greater; read-out: IC50, Cervix HeLa
Protocol: as §1, §2, §3, §4, §5, §6

[6] = test system: HeLa cells; assay: DEVDase (caspase 3/7) activity, Ac-DEVD-AFC substrate; type: cell-based, human; settings: 100 nM, 16 h of treatment
Protocol: Data are mean ± s.e.m. […] Data are given as mean ± s.e.m. […] Non-treated cells were used as control. (F, right panel) Densitometric quantification of cleaved caspase 3 and cleaved PARP levels (relative to control, non-treated cells). β-actin was used for loading normalization. Data are mean ± s.e.m.
Thus, we used the fluorogenic substrate Ac–DEVD–AFC as an indicator of the activation of effector caspases, which are the executioners of apoptosis.
(E) HeLa cells were treated as in (D) and apoptosis was assessed by DEVDase activity (right panel) and western blot of PARP1 and caspase-3 (left panel). β-actin was used for loading normalization. Data are mean ± s.e.m.
DEVDase activity was determined in 30 g of RIPA total protein cell lysate (without protease
inhibitors). Cleavage of the fluorogenic substrated Ac-DEVD-AFC. Caspase 3 and PARP
cleavage were determined in 50 g RIPA total protein cell lysate of control and treated cells.

[7] = test system: DNA (footprinting substrates MS1 and HexA); assay: DNase I footprinting; type: binding; settings: MS1 and HexA fragments; RZ compounds up to 500 μM (RZ2 up to 1 mM)
Description: compounds are 500 M and 100 M; the concentrations for echinomycin are 10 M and 5 M.

Compound	hemolysis (hemoglobin release from red blood cells) [1]	IC50 [2] [µM]	IC50 [3] [µM]	IC50 [4] [µM]	IC50 [5] [µM]	apoptosis induction (DEVDase activity, PARP1 and caspase-3 western blot) [6]	DNase I footprint (DNA binding) [7]
CC[C@H](NC(=O)[C@H](CO)NC(=O)c1cnc2ccccc2n1)C(=O)N[C@H](C(=O)N[C@H](C(=O)N1CCC[C@@H]1C(=O)NCC(=O)N[C@H](C(=O)N[C@H](C(=O)N[C@@H](CC)C(=O)NCCNC(=O)c1cnc2ccccc2n1)C(C)C)C(C)C)C(C)C)C(C)C [RZ2] (Quinoxaline2carbonyl-S[Abu]VV[dP]GVV[Abu]-{Ethylenediamine-Quinoxaline2carbonyl})	not hemolytic	5.4	11.9	6.8	2.7		
CC(C)[C@H]1C(=O)OC[C@@H](NC(=O)c2cnc3ccccc3n2)C(=O)N[C@@H](C)C(=O)N(C)[C@H]2CSSC[C@@H](C(=O)N1C)N(C)C(=O)[C@H](C)NC(=O)[C@H](NC(=O)c1cnc3ccccc3n1)COC(=O)[C@H](C(C)C)N(C)C2=O [Triostin A, reference compound] (I: Quinoxaline2carbonyl-[dS]A[NMeC][NMeV] / II: Quinoxaline2carbonyl-[dS]A[NMeC][NMeV]; ester I:1-II:C, I:C-II:1; disulfide I:3-II:3)		23.1	23.5	24.7	18.8		
CO/C1=C\C(C)=C\[C@@H](C)[C@@H](O)[C@@H](C)C/C(C)=C/C=C/[C@H](OC)[C@@H]([C@@H](C)[C@@H](O)[C@H](C)[C@@]2(O)C[C@@H](O)[C@H](C)[C@@H](C(C)C)O2)OC1=O [bafilomycin A1]						induces apoptosis	
echinomycin							Clear footprints
